Data: paper PMC7010025 (EFSA Journal, 2017)
≈ marks a conversion by molar mass, not a printed value. Entries after “also recorded” stand apart in the source; their conditions may differ. Read-outs that look alike come from different tables or passages of the source.

Experiments:
[1] = tested on: S. Typhimurium TA98, TA100, TA1535, TA1537 Escherichia coli WP2uvrA; conditions: ref Nucro‐Technics, 2011a, cited from earlier work; for Increase in colony counts per plate vs negative controls: positive controls
[2] = cited from earlier work; for Decarboxylation product concentration: starting batch held ~0.4% S9379
[3] = tested on: primary human lymphocytes; conditions: ref Nucro‐Technics, 2011b, cited from earlier work; for Cells with structural chromosomal aberrations: 20 h without S9‐mix
[4] = cited from earlier work; for Dry powder stability: 100°C up to 24 h
[5] = oral dosing in rat; ref Senomyx, 2011b; cited from earlier work
[6] = male and female rats, highest dose tested; ref MPI, 2011b; cited from earlier work
[7] = tested on: Salmonella Typhimurium strains, TA98 and TA100; conditions: up to 5,000 μg/plate, ref BioReliance, 2011, cited from earlier work
[8] = 10 mg/kg oral, ref Senomyx, 2013, cited from earlier work; for Average recovered from faeces and urine: 72‐h collection
Margins of safety = conditions: child; developmental toxicity NOAEL vs chronic APET
[9] = rat, 60‐min incubation; ref PharmOptima, 2011; cited from earlier work
[10] = ref WIL Research, 2012b; cited from earlier work
[11] = ref applicant dossier, cited from earlier work
[12] = human, 60‐min incubation; ref PharmOptima, 2011; cited from earlier work
[13] = tested on: bone marrow polychromatic erythrocytes; conditions: ref Nucro‐Technics, 2011c, cited from earlier work
[14] = ref Senomyx, 2011a, cited from earlier work
[15] = read-out: Combined mean Cmax; diet 100 mg/kg per day, day 7; ref MPI, 2011b; cited from earlier work
[16] = gavage, gestation days 6 through 20; ref WIL Research, 2012a; cited from earlier work
[17] = cake, 177°C 30 min, ref Senomyx, 2016
[18] = cookie, 204°C 8 min, ref Senomyx, 2016
[19] = hard candy, 149°C ~30 min, ref Senomyx, 2016
[20] = sulfate salt in sugar cookie, 177°C 10 min, 18 mg/kg
[21] = cake, 177°C 30 min, nominal 5 mg/kg, ref Senomyx, 2016
[22] = cookie, 204°C 8 min, nominal 5 mg/kg, ref Senomyx, 2016
[23] = hard candy, 149°C ~30 min, nominal 15 mg/kg, ref Senomyx, 2016
[24] = 100 mg/kg per day gavage, day 7

Nc1ccc2cc3ccccc3cc2c1 [2‐aminoanthracene]
Increase in colony counts per plate vs negative controls ([1]; experiments with S9‐mix): ≥ 3.1 fold

O=[N+]([O-])c1ccc2c(c1)Cc1ccccc1-2 [2‐nitrofluorene]
Increase in colony counts per plate vs negative controls ([1]; experiments without S9‐mix): ≥ 3.1 fold

Nc1c2ccccc2nc2ccccc12 [9‐aminoacridine]
Increase in colony counts per plate vs negative controls ([1]; experiments without S9‐mix): ≥ 3.1 fold

Cc1cc(N)c2c(OCC(C)(C)C(=O)NC(C)C)cccc2n1 [S9379, 4‐amino‐5‐(3‐(isopropylamino)‐2,2‐dimethyl‐3‐oxopropoxy)‐2‐methylquinoline]
Decarboxylation product, % of [FL‐no: 16.130] nominal [2, 17]: 0.82% | Decarboxylation product concentration [2, 17]: 0.041 mg/kg | Breakdown product S9379, % of nominal [FL‐no: 16.130] concentration ([2]; cake, cookie and candy prototypes): < 1% | Decarboxylation product, % of [FL‐no: 16.130] nominal [2, 18]: 0.86% | Decarboxylation product concentration [2, 18]: 0.043 mg/kg | Decarboxylation product, % of [FL‐no: 16.130] nominal [2, 19]: 0.94% | Decarboxylation product concentration [2, 19]: 0.14 mg/kg | Concentration of potential degradant S9379 ([2]; sulfate salt in hard candy, nominal 24 mg/kg): 0.04 mg/kg | Concentration of potential degradant S9379 [2, 20]: 0.02 mg/kg | S9379, % of nominal sulfate salt concentration [2, 20]: 0.1%

Cc1nc2cccc(OCC(C)(C)C(=O)NC(C)C)c2c(N)c1C(=O)[O-].[Na+] [[FL‐no: 16.130] sodium salt, sodium 4‐amino‐5‐(3‐(isopropylamino)‐2,2‐dimethyl‐3‐oxopropoxy)‐2‐methylquinoline‐3‐carboxylate]
Toxicity to tester strains ([1]; any concentration including 5,000 μg per plate): No toxicity was observed | Bacterial gene mutation assay result ([1]; plate incorporation and pre‐incubation, with and without metabolic activation, up to 5,000 μg/plate): Negative | Cells with chromosomal aberrations ([3]; 3 h with S9‐mix, 125 μg/mL (control 3.5%)): 5.0% | Cells with chromosomal aberrations ([3]; 3 h with S9‐mix, 250 μg/mL): 4.0% | Cells with chromosomal aberrations ([3]; 3 h without S9‐mix, 250 μg/mL): 2.0% | Cells with structural chromosomal aberrations ([3]; 125 μg/mL (control 1.5%)): 2.0% | Cells with structural chromosomal aberrations ([3]; 250 μg/mL): 1.0% | Cells with structural chromosomal aberrations ([3]; 500 μg/mL): 3.0%

Cc1nc2cccc(OCC(C)(C)C(=O)NC(C)C)c2c(N)c1C(=O)O.Cc1nc2cccc(OCC(C)(C)C(=O)NC(C)C)c2c(N)c1C(=O)O.O.O.O=S(=O)(O)O [[FL‐no: 16.130] sulfate salt, 4‐Amino‐5‐(3‐(isopropylamino)‐2,2‐dimethyl‐3‐oxopropoxy)‐2‐methylquinoline‐3‐carboxylic acid hemisulfate monohydrate salt]
Dry powder stability ([4]; ref Senomyx, 2016): stable | Bioequivalence to the candidate substance (systemic exposure) [5]: equivalent | Recovery ([2]; sulfate salt in hard candy, 149°C ~30 min, nominal 24 mg/kg): 104% | Recovery [2, 20]: 100%

Cc1nc2cccc(OCC(C)(C)C(=O)NC(C)C)c2c(N)c1C(=O)O [[FL‐no: 16.130], 4‐Amino‐5‐(3‐(isopropylamino)‐2,2‐dimethyl‐3‐oxopropoxy)‐2‐methylquinoline‐3‐carboxylic acid]
NOAEL following 13 weeks of dietary administration [6]: 100 mg/kg bw per day | Stability in aqueous solution ([4]; 40°C, pH 2.8, 4.0 and 7.1, 4 weeks, ref applicant dossier): stable | Dry powder stability ([4]; ref Senomyx, 2016): stable | Dry powder stability at 175°C ([4]; 175°C, S9379 only decomposition product, ref Senomyx, 2016): thermal degradation may take place | Bacterial gene mutation assay result ([7]; TA98, TA100, with and without S9‐mix): not mutagenic; also recorded: Negative | Bacterial toxicity [7]: did not result in bacterial toxicity | Recovered in faeces [8]: 75.5–99.5% | Recovered in urine [8]: 0.1–0.6% | Average recovered from faeces and urine ([8]; female rats): 91.4% | Average recovered from faeces and urine ([8]; male rats): 86.2% | Margin of safety (Margins of safety): 27,000 | Metabolism by microsomes [9]: not metabolised | NOAEL, developmental toxicity study in the rat [10]: 1,000 mg/kg bw per day | Solubility in ethanol ([11]; 95% ethanol): 1,600 mg/L | Solubility ([11]; in water): 700 µg/mL (≈ 1950 µM) | Mean measured concentration [2, 21]: 5.8 mg/kg | Measured concentration [2, 21]: 5.1 to 6.1 mg/kg | Stability in model product prototypes ([2]; cake, cookie and candy, typical processing conditions): stable | Mean measured concentration [2, 22]: 5.4 mg/kg | Measured concentration [2, 22]: 5.1 to 5.8 mg/kg | Mean measured concentration [2, 23]: 13.1 mg/kg | Measured concentration [2, 23]: 12.7 to 13.4 mg/kg | Recovery, % of nominal concentration [2, 23]: 87% | Metabolism by microsomes [12]: not metabolised | PCE/NCE ratio ([13]; any dose tested): No statistically significant decrease | In vivo micronucleus test result ([13]; single oral gavage, 500, 1,000 and 2,000 mg/kg bw, 24, 36, 48 h, no evidence of bone marrow exposure): did not induce micronuclei; also recorded: Negative | Combined mean AUC0–24 [14, 24]: 232 ng·h/mL | Combined mean Cmax [14, 24]: 154 ng/mL | Oral bioavailability (%F) ([14]; oral gavage, male and female rats, listed as candidate substance): 0.53–1.19% | Accumulation in plasma ([14]; repeated oral dosing, seven consecutive days): No significant accumulation | Cmax [15]: 317 nM | Result, dose range‐finding developmental toxicity study [16]: 1,000 mg/kg bw per day

c1ccc2c(c1)cc1ccc3cccc4ccc2c1c34 [benzo[α]pyrene]
Increase in colony counts per plate vs negative controls ([1]; experiments with S9‐mix): ≥ 3.1 fold

O=P1(N(CCCl)CCCl)NCCCO1 (stereo not shown) [cyclophosphamide monohydrate]
Increase in colony counts per plate vs negative controls ([1]; experiments with S9‐mix): ≥ 3.1 fold

COS(C)(=O)=O [methyl methanesulfonate]
Increase in colony counts per plate vs negative controls ([1]; experiments without S9‐mix): ≥ 3.1 fold

[N-]=[N+]=[N-].[Na+] [sodium azide]
Increase in colony counts per plate vs negative controls ([1]; experiments without S9‐mix): ≥ 3.1 fold
